Test results published in patent US6509146B1, “Scalable long-term shelf preservation of sensitive biological solutions and suspensions” (Universal Preservation Technologies, Inc., priority 1996, dated 2003).

How the values were obtained:
[1] = Urokinase activity after foam drying and storage; format: physicochemical; settings: 40wt % sucrose foam
Description: (6) Freezer-dried samples of Urokinase were rehydrated with 2 ml of 40wt % sucrose. The solutions were then transferred to 20 ml sterilized glass vials for future preservation by drying. Before drying, the vials were covered with gray slotted rubber stoppers. The vials were dried inside a vacuum chamber. The vials were sitting on the surface of a stainless steel shelf inside the chamber. The shelf temperature was controlled by circulating ethylene glycol/water antifreeze at a controlled temperature inside the shelf. Before the vacuum was applied the shelf temperature was decreased to 5° C. Then the hydrostatic pressure inside the chamber was decreased to 0.5 Torr. Under such a conditions the suspension boiled 30 min. […] Visually, stable dry foams inside the vials under these experimental conditions were formed during 3 hours. After an additional 12 hours of drying at room temperature, the temperature was increased to 45° C. for an additional 24 hours. After that the chamber was filled with the dry N2 gas, the rubber stoppers were pushed down and the vials were sealed with aluminum crimped seal.
The samples were assayed right after drying and after 30 days of storage at 40° C. After drying the Urokinase, activity was 93% of the initial activity. This decrease was associated with the loss of Urokinase during transformation from initial vials to the vials at which the Urokinase was dried. […]

[2] = potency of Amphotericin after foam drying and storage; format: physicochemical
Description: (7) Freeze-dried samples of Amphotericine B were rehydrated with 5 ml 40wt % sucrose per vial. Then the solutions were transferred into 50 ml sterilized glass vials for future preservation by drying. Before drying, the vials were covered with gray butyl slotted rubber stoppers. The vials were dried inside a vacuum chamber. The vials were sitting on the surface of a stainless steel shelf inside the chamber. The shelf temperature was controlled by circulating ethylene glycol/water antifreeze at a controlled temperature inside the shelf. Before the vacuum was applied the shelf temperature was decreased to 5° C. The hydrostatic pressure inside the chamber was decreased to 0.5 Torr. Under such a conditions the suspension boiled 30 min. The temperature of the shelf was then slowly (during 30 min) increased to 25° C. Visually, stable dry foams inside the vials under these experimental conditions were formed after 3 hours. After an additional 12 hours of drying at room temperature, the chamber was filled with the dry N2 gas and the rubber stoppers in a portion of the vials were pushed down. The vials were removed from the chamber and subsequently sealed with aluminum crimped seal. The samples were assayed right after drying and after 30 day of storage at 27.50 and 40° C. The results are shown in Table 1, together with the results obtained in the next experiment.
Another set of freeze-dried samples of Amphotericin B were rehydrated with 5 ml 40wt % sucrose per vial. The solutions were then transferred into sterilized glass vials for future preservation by drying similar to that described above with additional drying at 45° C. for additional 24 hours. After that, the chamber was filled again with the dry N2 gas, the rubber stoppers were pushed down and the vials were sealed. The samples were assayed right after drying and after 30 day of storage at 27.50 and 40° C.

| Compound | Urokinase activity, % of the initial activity ([1]; after 30 days of storage at 40° C.) [%] | Urokinase activity, % of the initial activity ([1]; right after drying (max 45° C.)) [%] | Potency of Amphotericin (%) ([2]; Freeze-dried control) | Potency of Amphotericin (%) After 30 days of storage at 27.5° C. ([2]; Td = 25° C.) [%] | Potency of Amphotericin (%) After drying ([2]; Td = 25° C. (maximum temperature during drying)) [%] | Potency of Amphotericin (%) After 30 days of storage at 27.5° C. ([2]; Td = 45° C.) [%] | Potency of Amphotericin (%) After 30 days of storage at 40° C. ([2]; Td = 45° C.) [%] | Potency of Amphotericin (%) After drying ([2]; Td = 45° C.) [%] |
| --- | --- | --- | --- | --- | --- | --- | --- | --- |
| Urokinase | 90 | 93 |  |  |  |  |  |  |
| C[C@@H]1[C@H](O)[C@@H](C)/C=C/C=C/C=C/C=C/C=C/C=C/C=C/[C@H](O[C@@H]2O[C@H](C)[C@@H](O)[C@H](N)[C@@H]2O)C[C@@H]2O[C@](O)(C[C@@H](O)C[C@@H](O)[C@H](O)CC[C@@H](O)C[C@@H](O)CC(=O)O[C@H]1C)C[C@H](O)[C@H]2C(=O)O [Amphotericin, Amphotericin B] |  |  | 126 | 114 | 108 | 102 | 104 | 103 |
